Data: PubChem BioAssay (NCI)
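Tested at 5 concentrations; 48 h exposure; 96-well plates; endpoints linearly interpolated, else capped at highest concentration. GI50 is the concentration that inhibits growth by half. At the TGI there is no net growth.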

How the values were obtained:
Experiment in all cases: DTP human tumour cell line panel, 48 h
T-47D breast = tested on: T-47D breast
MALME-3M melanoma = tested on: MALME-3M melanoma
SK-MEL-2 melanoma = tested on: SK-MEL-2 melanoma
IGROV1 ovarian = tested on: IGROV1 ovarian
OVCAR-8 ovarian = tested on: OVCAR-8 ovarian
SK-OV-3 ovarian = tested on: SK-OV-3 ovarian
EKVX NSCLC = tested on: EKVX NSCLC
SW-620 colon = tested on: SW-620 colon
SN12C renal = tested on: SN12C renal
HT29 colon = tested on: HT29 colon
SK-MEL-28 melanoma = tested on: SK-MEL-28 melanoma
SNB-75 CNS = tested on: SNB-75 CNS
BT-549 breast = tested on: BT-549 breast
SF-539 CNS = tested on: SF-539 CNS
SF-295 CNS = tested on: SF-295 CNS
SR leukemia = tested on: SR leukemia
786-0 renal = tested on: 786-0 renal
SF-268 CNS = tested on: SF-268 CNS
HOP-92 NSCLC = tested on: HOP-92 NSCLC
SNB-19 CNS = tested on: SNB-19 CNS
RPMI-8226 leukemia = tested on: RPMI-8226 leukemia
K-562 leukemia = tested on: K-562 leukemia
CCRF-CEM leukemia = tested on: CCRF-CEM leukemia
NCI-H23 lung = tested on: NCI-H23 lung
HCC-2998 colon = tested on: HCC-2998 colon
A498 renal = tested on: A498 renal
MDA-MB-435 = tested on: MDA-MB-435
NCI/ADR-RES ovarian = tested on: NCI/ADR-RES ovarian
HOP-62 NSCLC = tested on: HOP-62 NSCLC
NCI-H460 lung = tested on: NCI-H460 lung
OVCAR-5 ovarian = tested on: OVCAR-5 ovarian
OVCAR-4 ovarian = tested on: OVCAR-4 ovarian
COLO 205 colon = tested on: COLO 205 colon
HL-60(TB) leukemia = tested on: HL-60(TB) leukemia
A549 NSCLC = tested on: A549 NSCLC
HCT-15 colon = tested on: HCT-15 colon
ACHN renal = tested on: ACHN renal
DU-145 prostate = tested on: DU-145 prostate
KM12 colon = tested on: KM12 colon
HCT-116 colon = tested on: HCT-116 colon
HS 578T breast = tested on: HS 578T breast
NCI-H522 lung = tested on: NCI-H522 lung
OVCAR-3 ovarian = tested on: OVCAR-3 ovarian
SK-MEL-5 melanoma = tested on: SK-MEL-5 melanoma
TK-10 renal = tested on: TK-10 renal
U251 CNS = tested on: U251 CNS
LOX IMVI melanoma = tested on: LOX IMVI melanoma
PC-3 prostate = tested on: PC-3 prostate
UACC-257 melanoma = tested on: UACC-257 melanoma
MOLT-4 leukemia = tested on: MOLT-4 leukemia
MDA-MB-231 breast = tested on: MDA-MB-231 breast
CAKI-1 renal = tested on: CAKI-1 renal
M14 melanoma = tested on: M14 melanoma
NCI-H226 lung = tested on: NCI-H226 lung
RXF 393 renal = tested on: RXF 393 renal
UO-31 renal = tested on: UO-31 renal
UACC-62 melanoma = tested on: UACC-62 melanoma

## O=C1C=C(SCCO)C(=O)c2ccccc21
T-47D breast
  GI50: 1.47 µM
  TGI: 4.1 µM
MALME-3M melanoma
  GI50: 1.81 µM
  TGI: 3.29 µM
SK-MEL-2 melanoma
  GI50: 1.94 µM
  TGI: 3.91 µM
IGROV1 ovarian
  GI50: 3.61 µM
  TGI: 14.7 µM
OVCAR-8 ovarian
  GI50: 2.89 µM
  TGI: 10.8 µM
SK-OV-3 ovarian
  GI50: 3.97 µM
  TGI: 16.3 µM
EKVX NSCLC
  GI50: 1.46 µM
  TGI: 3.33 µM
SW-620 colon
  GI50: 1.85 µM
  TGI: 3.73 µM
SN12C renal
  GI50: 1.58 µM
  TGI: 3.04 µM
HT29 colon
  GI50: 2.58 µM
  TGI: 6.73 µM
SK-MEL-28 melanoma
  GI50: 2.01 µM
  TGI: 4.02 µM
SNB-75 CNS
  GI50: 1.37 µM
  TGI: 2.68 µM
BT-549 breast
  GI50: 1.55 µM
  TGI: 2.98 µM
SF-539 CNS
  GI50: 1.65 µM
  TGI: 3.03 µM
SF-295 CNS
  GI50: 1.62 µM
  TGI: 3 µM
SR leukemia
  GI50: 2.17 µM
  TGI: 5.75 µM
786-0 renal
  GI50: 2.27 µM
  TGI: 6.46 µM
SF-268 CNS
  GI50: 1.92 µM
  TGI: 5.07 µM
HOP-92 NSCLC
  GI50: 1.3 µM
  TGI: 3.01 µM
SNB-19 CNS
  GI50: 1.9 µM
  TGI: 4.18 µM
RPMI-8226 leukemia
  GI50: 2.09 µM
  TGI: 5 µM
K-562 leukemia
  GI50: 1.28 µM
  TGI: 4.25 µM
CCRF-CEM leukemia
  GI50: 1.14 µM
  TGI: 4.79 µM
NCI-H23 lung
  GI50: 1.49 µM
  TGI: 3.42 µM
HCC-2998 colon
  GI50: 2.78 µM
  TGI: 6.8 µM
A498 renal
  GI50: 13.9 µM
  TGI: 27 µM
MDA-MB-435
  GI50: 1.34 µM
  TGI: 2.65 µM
NCI/ADR-RES ovarian
  GI50: 2.16 µM
  TGI: 5.82 µM
HOP-62 NSCLC
  GI50: 1.7 µM
  TGI: 3.55 µM
NCI-H460 lung
  GI50: 1.84 µM
  TGI: 3.59 µM
OVCAR-5 ovarian
  GI50: 4.92 µM
  TGI: 21.4 µM
OVCAR-4 ovarian
  GI50: 1.42 µM
  TGI: 2.75 µM
COLO 205 colon
  GI50: 2.11 µM
  TGI: 4.29 µM
HL-60(TB) leukemia
  GI50: 0.451 µM
  TGI: 2.46 µM
A549 NSCLC
  GI50: 2.24 µM
  TGI: 4.59 µM
HCT-15 colon
  GI50: 1.91 µM
  TGI: 3.9 µM
ACHN renal
  GI50: 1.54 µM
  TGI: 2.87 µM
DU-145 prostate
  GI50: 1.71 µM
  TGI: 3.09 µM
KM12 colon
  GI50: 2.61 µM
  TGI: 9.86 µM
HCT-116 colon
  GI50: 1.8 µM
  TGI: 3.68 µM
HS 578T breast
  GI50: 2.21 µM
  TGI: 7.5 µM
NCI-H522 lung
  GI50: 1.89 µM
  TGI: 3.97 µM
OVCAR-3 ovarian
  GI50: 1.37 µM
  TGI: 2.68 µM
SK-MEL-5 melanoma
  GI50: 1.61 µM
  TGI: 2.97 µM
TK-10 renal
  GI50: 2.75 µM
  TGI: 6.2 µM
U251 CNS
  GI50: 1.76 µM
  TGI: 3.25 µM
LOX IMVI melanoma
  GI50: 1.53 µM
  TGI: 3.26 µM
PC-3 prostate
  GI50: 2.45 µM
  TGI: 8.89 µM
UACC-257 melanoma
  GI50: 1.96 µM
  TGI: 3.41 µM
MOLT-4 leukemia
  GI50: 1.26 µM
  TGI: 4.51 µM
MDA-MB-231 breast
  GI50: 1.42 µM
  TGI: 3.89 µM
CAKI-1 renal
  GI50: 2.08 µM
  TGI: 6.97 µM
M14 melanoma
  GI50: 1.78 µM
  TGI: 3.36 µM
NCI-H226 lung
  GI50: 16.3 µM
  TGI: 36.6 µM
RXF 393 renal
  GI50: 1.64 µM
  TGI: 3.01 µM
UO-31 renal
  GI50: 1.24 µM
  TGI: 2.49 µM
UACC-62 melanoma
  GI50: 1.6 µM
  TGI: 3.04 µM
